Columns and labels:
[1] = target: T1, human V1a receptor (Homo sapiens, UniProt P37288); test: Cellular in vitro assay for vasopressin receptor activity (aequorin luminescence, CHO K1 cells), hV1a; type: cell-based; details: CHO cell line transfected with human V1a receptor, agonist [Arg8]-vasopressin
T1 construct: expressed in transfected cells; host or cells: CHO K1 (ATCC), constitutively expressing modified aequorin
From the text: (§1) The identification of agonists and antagonists of the V1a and V2 vasopressin receptors from humans and rats and also the quantification of the activity of the substances described here took place using recombinant cell lines. These cells derive originally from a hamster ovary epithelial cell (Chinese Hamster Ovary, CHO K1, ATCC: American Type Culture Collection, Manassas, Va. 20108, USA). The test cell lines constitutively express a modified form of the calcium-sensitive photoprotein aequorin, which, after reconstitution with the cofactor coelenterazine, emits light when there are increases in the free calcium concentration (Rizzuto R., Simpson A. W., Brini M., Pozzan T.; Nature 358 (1992) 325-327). In addition, the cells are stably transfected with the human or rat V1a or V2 receptors. In the case of the Gs-coupling V2 receptors, the cells are stably transfected with a further gene, which codes for the promiscuous Gα16 protein (Amatruda T. T., Steele D. A., Slepak V. Z., Simon M. I., Proc. Nat. Acad. Sci. USA 88 (1991), 5587-5591), either independently or as a fusion gene. The resulting vasopressin receptor test cells react to stimulation of the recombinantly expressed vasopressin receptors by intracellular release of calcium ions, which can be quantified by the resulting aequorin luminescence using a suitable luminometer (Milligan G., Marshall F., Rees S., Trends in Pharmaco. Sci. 17 (1996) 235-237).
(§2) Test procedure: On the day before the assay, the cells are plated out in culture medium (DMEM, 10% FCS, 2 mM glutamine, 10 mM HEPES) in 384-well microtiter plates and kept in a cell incubator (96% humidity, 5% v/v carbon dioxide, 37° C.). On the day of the assay, the culture medium is replaced by a Tyrode solution (140 mM sodium chloride, 5 mM potassium chloride, 1 mM magnesium chloride, 2 mM calcium chloride, 20 mM glucose, 20 mM HEPES), which additionally contains the cofactor coelenterazine (50 μM), and the microtiter plate is then incubated for a further 3-4 hours. The test substances in various concentrations are placed for 10 to 20 minutes in the wells of the microtiter plate before the agonist [Arg8]-vasopressin is added, and the resulting light signal is measured immediately in the luminometer. The IC50 values are calculated using the GraphPad PRISM computer program (Version 3.02).
(§3) The table below lists representative IC50 values for the compounds of the invention on the cell line transfected with the human V1a or V2 receptor: […]

[2] = target: T2, human V2 receptor (Homo sapiens, UniProt P30518); test: Cellular in vitro assay for vasopressin receptor activity (aequorin luminescence, CHO K1 cells), hV2; type: cell-based; details: CHO cell line transfected with human V2 receptor and Gα16, agonist [Arg8]-vasopressin
T2 construct: expressed in transfected cells; host or cells: CHO K1 (ATCC), constitutively expressing modified aequorin and co-transfected with Gα16
T2 sequence (P30518 whole entry): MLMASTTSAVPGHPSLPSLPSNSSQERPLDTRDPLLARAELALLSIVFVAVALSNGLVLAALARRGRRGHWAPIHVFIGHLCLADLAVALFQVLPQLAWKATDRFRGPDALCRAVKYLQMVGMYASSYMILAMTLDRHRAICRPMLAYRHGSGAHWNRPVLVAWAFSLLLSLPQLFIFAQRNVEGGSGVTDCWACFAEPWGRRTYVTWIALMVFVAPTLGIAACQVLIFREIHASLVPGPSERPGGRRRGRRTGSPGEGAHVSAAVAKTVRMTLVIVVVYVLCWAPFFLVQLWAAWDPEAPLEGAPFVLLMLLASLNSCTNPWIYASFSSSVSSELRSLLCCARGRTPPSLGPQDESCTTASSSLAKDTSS
From the text: as §1, §2, §3

T1 sequence (P37288 whole entry): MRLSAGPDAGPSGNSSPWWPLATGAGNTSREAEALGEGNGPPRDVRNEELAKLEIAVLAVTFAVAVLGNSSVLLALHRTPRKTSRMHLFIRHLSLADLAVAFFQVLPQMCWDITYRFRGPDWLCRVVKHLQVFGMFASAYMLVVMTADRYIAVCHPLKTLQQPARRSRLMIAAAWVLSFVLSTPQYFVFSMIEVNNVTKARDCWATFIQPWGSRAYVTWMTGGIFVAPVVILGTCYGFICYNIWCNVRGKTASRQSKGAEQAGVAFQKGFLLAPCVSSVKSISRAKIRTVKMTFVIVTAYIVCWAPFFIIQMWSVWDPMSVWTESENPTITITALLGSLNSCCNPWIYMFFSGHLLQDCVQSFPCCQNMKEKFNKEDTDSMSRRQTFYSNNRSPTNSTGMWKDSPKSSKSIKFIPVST

Structure (SMILES)	IC50 [1]	IC50 [2]
CCC(NC(=O)Cn1nc(-c2ccc(Cl)cc2)n(C[C@H](O)C(F)(F)F)c1=O)(C(N)=O)c1cccc(C(F)(F)F)c1 (single isomer, unassigned) [Example 14]	0.006 µM	0.0064 µM
CC(NC(=O)Cn1nc(-c2ccc(Cl)cc2)n(Cc2ccccc2F)c1=O)(C(N)=O)c1cccc(C(F)(F)F)c1 (single isomer, unassigned) [Example 25, 2-({[3-(4-Chlorophenyl)-4-(2-fluorobenzyl)-5-oxo-4,5-dihydro-1H-1,2,4-triazol-1-yl]acetyl}amino)-2-[3-(trifluoromethyl)phenyl]propanamide]	0.006 µM	0.016 µM
CC(NC(=O)Cn1nc(-c2ccc(Cl)cc2)n(C[C@H](O)C(F)(F)F)c1=O)(C(=O)O)c1cccc(C(F)(F)F)c1 (stereo partly drawn) [Example 1, 2-[({3-(4-Chlorophenyl)-5-oxo-4-[(2S)-3,3,3-trifluoro-2-hydroxypropyl]-4,5-dihydro-1H-1,2,4-triazol-1-yl}acetyl)amino]-2-[3-(trifluoromethyl)phenyl]propanoic acid]	0.118 µM	0.012 µM
C[C@@](NC(=O)Cn1nc(-c2ccc(Cl)cc2)n(C[C@H](O)C(F)(F)F)c1=O)(C(N)=O)c1cccc(C(F)(F)F)c1 [Example 3, (2S)-2-[({3-(4-Chlorophenyl)-5-oxo-4-[(2S)-3,3,3-trifluoro-2-hydroxypropyl]-4,5-dihydro-1H-1,2,4-triazol-1-yl}acetyl)amino]-2-[3-(trifluoromethyl)phenyl]propanamide]	0.106 µM	0.028 µM
C[C@](NC(=O)Cn1nc(-c2ccc(Cl)cc2)n(C[C@H](O)C(F)(F)F)c1=O)(C(N)=O)c1cccc(C(F)(F)F)c1 [Example 4, (2R)-2-[({3-(4-Chlorophenyl)-5-oxo-4-[(2S)-3,3,3-trifluoro-2-hydroxypropyl]-4,5-dihydro-1H-1,2,4-triazol-1-yl}acetyl)amino]-2-[3-(trifluoromethyl)phenyl]propanamide]	0.0022 µM	0.0037 µM
C[C@](NC(=O)Cn1nc(-c2ccc(Cl)cc2)n(C[C@H](O)C(F)(F)F)c1=O)(C(N)=O)c1ccccc1Cl [Example 17, (2R)-2-(2-Chlorophenyl)-2-[({3-(4-chlorophenyl)-5-oxo-4-[(2S)-3,3,3-trifluoro-2-hydroxypropyl]-4,5-dihydro-1H-1,2,4-triazol-1-yl}acetyl)amino]propanamide]	0.012 µM	0.22 µM
C[C@](NC(=O)Cn1nc(-c2ccc(Cl)cc2)n(/C=C/C(F)(F)F)c1=O)(C(N)=O)c1cccc(C(F)(F)F)c1 [Example 19, (2R)-2-[({3-(4-Chlorophenyl)-5-oxo-4-[(1E)-3,3,3-trifluoroprop-1-en-1-yl]-4,5-dihydro-1H-1,2,4-triazol-1-yl}acetyl)amino]-2-[3-(trifluoromethyl)phenyl]propanamide]	0.013 µM	0.014 µM
